Source: US20090117090A1, “INHIBITION OF GLYCOGEN SYNTHASE KINASE 3 BETA IN ARTERIAL REPAIR AND STENT RE-ENDOTHELIALIZATION” (OTTAWA HEART INSTITUTE RESEARCH CORPORATION, priority 2007, published 2009)
Read-outs that look alike come from different tables or passages of the source.

Key:
[1] = target: GSK-3β (Homo sapiens, UniProt P49841); details: cited from earlier work
[2] = tested on: EPCs; assay: EPC culture and enumeration (AcLDL uptake / UEA-1 dual positive cells); format: cell-based, human
Description: EPCs were isolated and cultured as previously described (17). Briefly, peripheral blood mononuclear cells (PBMCs) were isolated by ficoll gradient centrifugation from either healthy young volunteers or patients with angiographically verified CAD. Blood was collected by venipuncture and anticoagulated with EDTA. 5×10^6 PBMCs were then washed and resuspended in EGM-2 media (Clonetics) and plated on fibronectin coated plates. Media were supplemented with either LiCl (Sigma), GSKI VIII (Calbiochem; Cat. No. 361549; AR-A014418:N-(4-Methoxybenzyl)-N′-(5-nitro-1,3-thiazol-2-yl)urea), or vehicle (DMSO) at the indicated concentrations.
GSK inhibitor VIII is a GSK-3β isoform specific inhibitor derived from a class of compounds shown to inhibit GSK-3 both in vitro (54) and in vivo (53). After 96 hours of culture, non-adherent cells were removed and the plates washed three times with buffered wash solution. Cells were then incubated for another 72 hours before being labeling, enumeration, or being used in various assays.
For the task of enumeration EPCs were arbitrarily defined as cells dually positive for AcLDL uptake and ulex europeus agglutinin I (UEAI) binding. […] Plates of cells were again washed, and incubated for a DAPI nuclear counterstain before a coverslip was applied to the well and double positive cells were counted in 6 random high power fields (×200 magnification). […]

[3] = tested on: EPCs; assay: EPC fibronectin adhesion assay; format: cell-based, human
Experimental: Day 7 EPCs were detached from their fibronectin coated plates by incubation with 0.5 mmol EDTA. Cells were pelleted, resuspended in EGM-2 and enumerated. Subsequently, 100,000 EPCs were plated in 24-well fibronectin coated plates and incubated for 30 minutes. After, the wells were washed three times with HBSS and the adherent cells labeled and six random high power fields enumerated. Blocking experiments were performed using a specific VLA-4 antibody (MAB169832, Chemicon) at a concentration of 10 ug/mL and allowing cells to incubate for 2 hours.

[4] = tested on: EPCs; assay: EPC apoptosis by propidium iodide flow cytometry; format: cell-based, human; details: 2×GSKI; EPCs of healthy controls and CAD patients
[5] = tested on: α-integrin subunits 1-5; assay: Quantitative PCR of α-integrin subunits in EPCs; format: cell-based, human
[6] = tested on: EPCs; assay: EPC cell survival assay; format: cell-based, human; details: both healthy controls and patients with CAD, n=6
Experimental: Day seven EPCs were used for all experiments unless otherwise indicated. For the cell survival assay, six high power fields were enumerated on day 7 for each individual. Subsequently, cells were washed and the media changed every four days after which cells were again enumerated. Data are expressed as a percentage of initial cells present on day 7. For apoptosis studies cells from patients and healthy controls were cultured for 7 days. Cells were then lifted and recoated at a density of 2×10^6 mature EPCs per well. The cells were then allowed to incubate for an additional four days prior to being lifted with EDTA supplementation of the media and gentle agitation. Cells were pelleted and resuspended in HBSS. Prior to analysis by flow cytometry, 10 μL of propidium iodide was added to the cell suspension. EPCs were identified by uptake of acLDL-alexa488 (Invitrogen) and UEA-1 FITC labeling in separate experiments. Uptake of propidium iodide identified apoptotic cells. A total of ten thousand events was analyzed and the data expressed as a percentage of total EPCs being apoptotic. All experiments were conducted on a Beckman Coulter Cytomics FC 500 cytometer.

[7] = tested on: EPCs; assay: In vitro prediction of maximal tolerated dose of GSKI in EPC culture; format: cell-based, human; details: multiples of IC50 concentration in EGM-2; 1× to 100× tested
Experimental: In accordance with another aspect of the present invention, local delivery of inhibitor at the site of arterial injury represents an alternative strategy for enhancing arterial repair and mitigating neointima formation. GSKI coated stents (GCSs) were manufactured for use in a rabbit carotid model of stent neointima formation as previously described (27). Prior to implanting these GCSs, in vitro experiments were performed in order to predict the maximal tolerated dose of GSKI we could deliver in vivo. EPCs were cultured in EGM-2 supplemented with 1×, 2×, 5×, 10×, 20×, 30×, 40×, 50×, and 100× concentrations of the GSKI. […] To manufacture the GCSs, bare metal stents were coated with muco-gel supplemented with DMSO (vehicle for GSKI) or muco-gel containing 20×GSKI as previously described (27). Once coated, stents were allowed to dry in a sterile environment and packaged aseptically prior to delivery. Stents were deployed in New Zealand white rabbit carotid arteries according to a previous protocol and the stent neointima was subjected to quantitative histomophometry 14 days post-stent deployment (22). […] Despite rapid re-endothelialization of GCSs, a neointima formed in both groups but was 50% smaller in area in GCSs vs. control stents. […]

[8] = tested on: β-catenin; assay: β-catenin nuclear levels by western blot of EPC nuclear extracts; format: cell-based, human; details: EPCs cultured in media supplemented with GSKI (2×) vs control media
Experimental: β-catenin nuclear levels were assayed by western blot of nuclear extracts from both control and treated EPCs. Briefly, nuclei were separated by differential centrifugation and total nuclear protein was extracted. Protein was then run on an acrylamide gel and transferred onto a PVDF membrane overnight. After transfer, the membrane was blocked for one hour in 5% skim milk powder in 0.1% Tween-20 in Tris buffered saline. This was then incubated for 48 hours with primary antibody of a monoclonal anti-phospho-β-catenin (Cell Signaling Technologies) diluted 1:1000 in 5% skim milk powder in TBS-T. After incubation the membrane was then washed 3 times for 5 minutes each with TBS-T. The membrane was then incubated in secondary antibody of goat anti rabbit IgG (H+ L) conjugated with horseradish peroxidase (1:5000 in TBS-T) for 24 hours. The membrane was washed and quantitated using ECL Plus (Amersham Biosciences).

[9] = tested on: VEGF; assay: VEGF secretion by EPCs (ELISA); format: cell-based, human; details: 24 hours in VEGF free media

GSK-3β, sequence (P49841 whole entry, species assumed): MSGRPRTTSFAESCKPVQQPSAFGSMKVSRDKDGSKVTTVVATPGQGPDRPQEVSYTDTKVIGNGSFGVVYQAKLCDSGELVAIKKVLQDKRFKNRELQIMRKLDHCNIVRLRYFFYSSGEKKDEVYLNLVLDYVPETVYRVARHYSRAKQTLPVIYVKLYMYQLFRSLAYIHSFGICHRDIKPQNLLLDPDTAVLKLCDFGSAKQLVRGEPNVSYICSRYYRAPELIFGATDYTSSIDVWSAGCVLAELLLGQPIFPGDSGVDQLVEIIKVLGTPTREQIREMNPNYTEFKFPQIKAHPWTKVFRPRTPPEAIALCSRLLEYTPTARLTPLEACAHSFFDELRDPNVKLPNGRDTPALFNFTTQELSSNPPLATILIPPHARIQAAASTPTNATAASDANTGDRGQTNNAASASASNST

Row | Structure (SMILES) | doses in which LiCl inhibits GSK-3β [1] [mM] | EPC yield ([2]; 7 days culture, EPCs from both healthy controls and CAD patients, GSKI at 104 nm and 208 nm) | EPC adherence, healthy controls ([3]; EPCs from healthy controls, fibronectin, 30 minutes) | increase in EPC adherence, patients cells ([3]; EPCs from patients with CAD, fibronectin, 30 minutes) [fold] | number of adherent cells after 30 minutes ([3]; VLA4 blocking experiment, without antibody) | percentage of apoptotic cells [4] | EPC yield [2] | mRNA levels of α-1, -2, -3 and -5 integrin subunits ([5]; GSKI 1× and 2× vs control) | mRNA of α-4 integrin subunit ([5]; both concentrations of the GSKI (1×, 2×)) | EPC survival (long term viability) [6] | dose resulting in increased EPC death and attenuated function [7] [×] | nuclear b-catenin levels [8] | VEGF secretion by mature EPCs [9]
1 | [Cl-].[Li+] [LiCl, lithium chloride] | 10 to 20 | increases | – | – | – | – | – | – | – | – | – | – | –
2 | COc1ccc(CNC(=O)Nc2ncc([N+](=O)[O-])s2)cc1 [GSKI, N-(4-Methoxybenzyl)-N′-(5-nitro-1,3-thiazol-2-yl)urea] | – | – | dose dependent increase | ~4 | increased | reduction | increase | No difference | upregulation | significantly improves long term viability | ≥ 30 | increased levels | increase
